Assays:
Assay type in all cases: cell-based, human
A549 = assay: MTT cytotoxicity assay, monolayer culture; details: exposure time 96 h, means ± SDs
Description: (§1) A549 (non‐small cell lung carcinoma), SW480 and HCT‐116 (both colon carcinoma) were kindly provided by Brigitte Marian, Institute of Cancer Research, Department of Medicine I, Medical University of Vienna, Austria. The cell line CH1/PA‐1 (ovarian teratocarcinoma) was kindly provided by Lloyd R. Kelland (CRC Centre for Cancer Therapeutics, Institute of Cancer Research, Sutton, UK). All cell culture media (including supplements) and reagents were obtained from Sigma–Aldrich, and all plasticware from StarLab, unless indicated otherwise.

CH1/PA‐1 [1] = assay: MTT cytotoxicity assay, monolayer culture; details: CH1/PA‐1, MTT assay, exposure time 96 h, means ± SDs
Description: as §1

SW480 [2] = assay: MTT cytotoxicity assay, monolayer culture; details: for IC50: SW480, MTT assay, exposure time 96 h, means ± SDs
Description: as §1

CH1/PA‐1 [3] = assay: Cell cycle distribution, flow cytometry with propidium iodide; details: for Cell cycle distribution G1, % / Cell cycle distribution G2/M, % / Cell cycle distribution S, %: 24 h, mean ± SD; for Relative change in cell cycle distribution G1, % / Relative change in cell cycle distribution G2/M, % / Relative change in cell cycle distribution S, %: difference to untreated control
Experimental: (§2) The influence of two ligands, as well as seven complexes on cell cycle distribution was tested in two of the cancer cell lines (SW480, CH1/PA‐1) by means of flow cytometry. The cell cycle distribution (G1, S, G2/M phase in %; Table S37) was investigated upon DNA staining with propidium iodide.
(§3) CH1/PA‐1 and SW480 cells were harvested by trypsinization, 8×10^4 and 1.2×10^5 cells per well were seeded into 12‐well plates, respectively. The cells were allowed to attach and resume proliferation for 24 h after the seeding. […] After continuous exposure for 24 h at 37 °C and under 5 % CO2, the cells were harvested by trypsinization and centrifuged at 300 g for 3 min. The cells were washed with PBS (1 mL) and resuspended in propidium iodine (PI) containing HSF buffer (600 μL; 0.1 % Triton X‐100, 0.1 % sodium citrate, 50 μg mL^−1 PI in PBS). After incubation overnight at 4 °C in the dark, 5×10^3 cells were measured by flow cytometry with a Millipore Guava easyCyte 8HT instrument (Luminex, USA). Data were evaluated by means of FlowJo software (Tree Star) using Watson Pragmatic algorithms.60 The fitting of the curve was chosen to keep the root mean square error between 1.0 and 2.0, alongside with good fitting visual model.

SW480 [4] = assay: as above; details: for Cell cycle distribution G1, % / Cell cycle distribution G2/M, % / Cell cycle distribution S, %: 24 h, mean ± SD; for Relative change in cell cycle distribution G1, % / Relative change in cell cycle distribution G2/M, % / Relative change in cell cycle distribution S, %: difference to untreated control
Experimental: as §2, §3

Question: Which results are given for `Cc1c([O-])c(=S)ccn1-c1ccccc1.Cc1ccc(C(C)C)cc1.[Cl-].[Ru+2]` [Compound 3 b, Chlorido[2‐methyl‐3‐(oxo‐κO)‐1‐phenylpyridine‐4(1H)‐thionato‐κS](η^6‐p‐cymene)ruthenium(II)]?
Answer: IC50 (A549): 2.4 ± 0.8 µM; IC50 (CH1/PA‐1 [1]): 0.94 ± 0.08 µM; IC50 (SW480 [2]): 2.8 ± 0.1 µM

Question: What does the source list for `Cc1c([O-])c(=S)ccn1C.Cc1ccc(C(C)C)cc1.[Cl-].[Os+2]` [Compound 4 a, [Chlorido[1,2‐dimethyl‐3‐(oxo‐κO)‐pyridine‐4(1H)‐thionato‐κS](η^6‐p‐cymene)osmium(II)]]?
Answer: IC50 (A549): > 200 µM; IC50 (CH1/PA‐1 [1]): 112 ± 27 µM; IC50 (SW480 [2]): > 200 µM

Question: For `Cc1c([O-])c(=S)ccn1-c1cccc2ccccc12.Cc1ccc(C(C)C)cc1.[Cl-].[Ru+2]` [Compound 3 d, Chlorido[2‐methyl‐1‐(naphthalene‐1‐yl)‐3‐(oxo‐κO)‐pyridine‐4(1H)‐thionato‐κS](η^6‐p‐cymene)ruthenium(II)], which IC50 (A549) is on record?
Answer: Its IC50 is 2.1 ± 0.3 µM.

Question: And the IC50 (CH1/PA‐1 [1])?
Answer: Its IC50 is 1.6 ± 0.3 µM.

Question: And the IC50 (SW480 [2])?
Answer: The IC50 was 4 ± 0.3 µM.

Question: Which results are given for “Chlorido[1‐(naphthalene‐1‐yl)‐2‐methyl‐3‐oxo‐κO‐pyridine‐4(1H)‐thionato‐κS](η^5‐1,2,3,4,5‐pentamethylcyclopentadienyl)iridium(III) [Compound 6 d]”?
Answer: IC50 (A549): 2 ± 0.4 µM; IC50 (CH1/PA‐1 [1]): 0.68 ± 0.02 µM; IC50 (SW480 [2]): 0.8 ± 0.15 µM

Question: What does the source list for `Cc1c([O-])c(=S)ccn1-c1cccc2ccccc12.Cc1ccc(C(C)C)cc1.[Cl-].[Os+2]` [Compound 4 d, Chlorido[2‐methyl‐1‐(naphthalene‐1‐yl)‐3‐(oxo‐κO)‐pyridine‐4(1H)‐thionato‐κS](η^6‐p‐cymene)osmium(II)]?
Answer: IC50 (A549): 2.4 ± 0.3 µM; IC50 (CH1/PA‐1 [1]): 1.3 ± 0.3 µM; IC50 (SW480 [2]): 7.7 ± 0.3 µM; IC50 relative to the osmium thiomaltol complex (SW480 [2]; SW480 cells): four times higher

Question: Which IC50 (A549; Homo sapiens) does the source give for `Cc1c(O)c(=S)ccn1-c1ccccc1` [Compound 2 b, 3‐hydroxy‐2‐methyl‐1‐phenylpyridine‐4(1H)‐thione] here?
Answer: The IC50 was 1.6 ± 1.2 µM.

Question: What about the IC50 (CH1/PA‐1 [1]; Homo sapiens) of the same molecule?
Answer: The IC50 was 0.52 ± 0.05 µM.

Question: What about the IC50 (SW480 [2]; Homo sapiens) of the same molecule?
Answer: Its IC50 is 0.52 ± 0.03 µM.

Question: What does the source list for “Chlorido[1‐phenyl‐2‐methyl‐3‐oxo‐κO‐pyridine‐4(1H)‐thionato‐κS](η^5‐1,2,3,4,5‐pentamethylcyclopentadienyl)iridium(III) [Compound 6 b]”?
Answer: IC50 (A549): 2.2 ± 0.8 µM; IC50 (CH1/PA‐1 [1]): 0.82 ± 0.05 µM; IC50 (SW480 [2]): 0.59 ± 0.08 µM

Question: How did the IC50 (A549; Homo sapiens) turn out when `Cc1c(O)c(=S)ccn1Cc1ccccc1` [Compound 2 c, 3‐hydroxy‐2‐methyl‐1‐benzylpyridine‐4(1H)‐thione] was run?
Answer: The IC50 was 0.79 ± 0.12 µM.

Question: What about the IC50 (SW480 [2]; Homo sapiens) of the same molecule?
Answer: The IC50 was 0.28 ± 0.04 µM.

Question: What about the “Cell cycle distribution G1, %” value (CH1/PA‐1 [3]; CH1/PA-1, 2.5 µM) of the same molecule?
Answer: The value was 43 ± 16%.

Question: And the “Cell cycle distribution G2/M, %” value (CH1/PA‐1 [3]; CH1/PA-1, 2.5 µM)?
Answer: Its value is 19 ± 9%.

Question: What about the “Cell cycle distribution S, %” value (CH1/PA‐1 [3]; CH1/PA-1, 2.5 µM) of the same molecule?
Answer: The value was 37 ± 5%.

Question: And the “Relative change in cell cycle distribution G1, %” value (CH1/PA‐1 [3]; CH1/PA-1, 2.5 µM)?
Answer: Its value is 3%.

Question: And the “Relative change in cell cycle distribution G2/M, %” value (CH1/PA‐1 [3]; CH1/PA-1, 2.5 µM)?
Answer: The value was -5%.

Question: And the “Relative change in cell cycle distribution S, %” value (CH1/PA‐1 [3]; CH1/PA-1, 2.5 µM)?
Answer: The value was 1%.

Question: And the “Cell cycle distribution G1, %” value (CH1/PA‐1 [3]; CH1/PA-1, 5 µM)?
Answer: Its value is 31 ± 5%.

Question: And the “Cell cycle distribution G2/M, %” value (CH1/PA‐1 [3]; CH1/PA-1, 5 µM)?
Answer: The value was 32 ± 4%.

Question: And the “Cell cycle distribution S, %” value (CH1/PA‐1 [3]; CH1/PA-1, 5 µM)?
Answer: Its value is 37 ± 2%.

Question: And the “Relative change in cell cycle distribution G1, %” value (CH1/PA‐1 [3]; CH1/PA-1, 5 µM)?
Answer: Its value is -9%.

Question: And the “Relative change in cell cycle distribution G2/M, %” value (CH1/PA‐1 [3]; CH1/PA-1, 5 µM)?
Answer: Its value is 8%.

Question: What about the “Relative change in cell cycle distribution S, %” value (CH1/PA‐1 [3]; CH1/PA-1, 5 µM) of the same molecule?
Answer: The value was 1%.

Question: And the “Cell cycle distribution G1, %” value (CH1/PA‐1 [3]; CH1/PA-1, 10 µM)?
Answer: The value was 31 ± 6%.

Question: And the “Cell cycle distribution G2/M, %” value (CH1/PA‐1 [3]; CH1/PA-1, 10 µM)?
Answer: Its value is 26 ± 10%.

Question: What about the “Cell cycle distribution S, %” value (CH1/PA‐1 [3]; CH1/PA-1, 10 µM) of the same molecule?
Answer: Its value is 43 ± 8%.

Question: What about the “Relative change in cell cycle distribution G1, %” value (CH1/PA‐1 [3]; CH1/PA-1, 10 µM) of the same molecule?
Answer: Its value is -9%.

Question: What about the “Relative change in cell cycle distribution G2/M, %” value (CH1/PA‐1 [3]; CH1/PA-1, 10 µM) of the same molecule?
Answer: The value was 2%.

Question: What about the “Relative change in cell cycle distribution S, %” value (CH1/PA‐1 [3]; CH1/PA-1, 10 µM) of the same molecule?
Answer: The value was 7%.

Question: And the “effect on cell cycle distribution, in words” value (CH1/PA‐1 [3]; CH1/PA‐1 cells)?
Answer: The value was “little effect”.

Question: And the “decrease in G1 phase” value (CH1/PA‐1 [3]; CH1/PA‐1 cells, 10 μM)?
Answer: Its value is 9%.

Question: What about the “Cell cycle distribution G1, %” value (SW480 [4]; SW480, 5 µM) of the same molecule?
Answer: The value was 30 ± 1%.

Question: What about the “Cell cycle distribution G2/M, %” value (SW480 [4]; SW480, 5 µM) of the same molecule?
Answer: Its value is 31 ± 3%.

Question: And the “Cell cycle distribution S, %” value (SW480 [4]; SW480, 5 µM)?
Answer: The value was 39 ± 2%.

Question: What about the “Relative change in cell cycle distribution G1, %” value (SW480 [4]; SW480, 5 µM) of the same molecule?
Answer: Its value is -18%.

Question: What about the “Relative change in cell cycle distribution G2/M, %” value (SW480 [4]; SW480, 5 µM) of the same molecule?
Answer: Its value is 12%.

Question: And the “Relative change in cell cycle distribution S, %” value (SW480 [4]; SW480, 5 µM)?
Answer: The value was 6%.

Question: And the “Cell cycle distribution G1, %” value (SW480 [4]; SW480, 10 µM)?
Answer: The value was 27 ± 3%.

Question: And the “Cell cycle distribution G2/M, %” value (SW480 [4]; SW480, 10 µM)?
Answer: The value was 27 ± 3%.

Question: What about the “Cell cycle distribution S, %” value (SW480 [4]; SW480, 10 µM) of the same molecule?
Answer: The value was 45 ± 2%.

Question: And the “Relative change in cell cycle distribution G1, %” value (SW480 [4]; SW480, 10 µM)?
Answer: Its value is -21%.

Question: What about the “Relative change in cell cycle distribution G2/M, %” value (SW480 [4]; SW480, 10 µM) of the same molecule?
Answer: Its value is 8%.

Question: And the “Relative change in cell cycle distribution S, %” value (SW480 [4]; SW480, 10 µM)?
Answer: Its value is 12%.

Question: What about the “Cell cycle distribution G1, %” value (SW480 [4]; SW480, 20 µM) of the same molecule?
Answer: The value was 34 ± 5%.

Question: What about the “Cell cycle distribution G2/M, %” value (SW480 [4]; SW480, 20 µM) of the same molecule?
Answer: Its value is 17 ± 3%.

Question: What about the “Cell cycle distribution S, %” value (SW480 [4]; SW480, 20 µM) of the same molecule?
Answer: The value was 49 ± 1%.

Question: What about the “Relative change in cell cycle distribution G1, %” value (SW480 [4]; SW480, 20 µM) of the same molecule?
Answer: The value was -14%.

Question: What about the “Relative change in cell cycle distribution G2/M, %” value (SW480 [4]; SW480, 20 µM) of the same molecule?
Answer: Its value is -2%.

Question: What about the “Relative change in cell cycle distribution S, %” value (SW480 [4]; SW480, 20 µM) of the same molecule?
Answer: The value was 16%.

Question: And the “decrease in G1” value (SW480 [4]; SW480 cells, 2.5 μM)?
Answer: Its value is 18%.
